Reference: patent US10081812B2, “D-amino acid-inducible gene expression system for Rhodosporidium and Rhodotorula” (TEMASEK LIFE SCIENCES LABORATORY LIMITED, priority 2015, dated 2018)

How the values were obtained:
DAO1 promoter (PDAO1in) = test: Luciferase reporter assay of 2.2 kb intron 1-containing DAO1 promoter (PDAO1in) reporter strains; format: cell-based, R. toruloides; details: for induction of DAO1 promoter by D-amino acid: 70 mM as the sole carbon and nitrogen source in MinABs, 21 h induction, FIG. 8
Method: (§1) For gene induction studies, modified MinAB (MinABs) (28) with carbon source and nitrogen source (NH4NO3) omitted was used as basal medium. Carbon source (10 g/L glucose, 70 mM L-alanine or D-alanine) and nitrogen source (70 mM ammonium sulfate, L-alanine or D-alanine) were supplemented as required. For stress treatments, YPD broth was used as the basal medium and cultured after supplementation of various chemicals, or in harsh conditions. Unless indicated otherwise, cell cultures were conducted in a rotary shaker under 28° C. and 250 rpm.
Yeast strains transformed with PDAOinx::RtLUC2 cassettes were cultured in YPD broth to mid-exponential phase. Cells were water-washed twice and resuspended in MinABs plus 70 mM of either D-alanine or L-alanine to a cell optical density at 600 nm (OD600) of 0.5 and continued culturing at 30° C., 250 rpm for 21 hr. Cells were harvested, washed and resuspended in PBS buffer supplemented with 1 mM DTT, 3 mM β-mercaptoethanol and 1 mM PMSF (pH7.4) supplemented with equal volume of 0.5 mm glass beads (Sigma-Aldrich, USA), and lysed with FastPrep 24™ 5 G (MP Biomedicals, Irvine, Calif., USA) for 40 seconds. The protein concentration and luciferase activity was determined using Bradford method and a commercial luciferase assay kit (Promega, USA) under the supplier's protocol, respectively. All data was measured and acquired with the Infinite M200 plate reader coupled with the iCycler software (version 3.0, Tecan, Salzburg, Austria). All experiments were performed in both biological and statistical triplicates. For determination of relative promoter activity (RPA), luminescence value was subtracted against the blank or negative control (promoter-less strain), normalized against the protein concentration, then normalized against either the values of PGPD1 or the maximum reading.
To investigate the effects of carbon and nitrogen sources on promoter activity, 3 strains with 2.2 kb intron 1-containing DAO1 promoter (PDAO1in) knocked in at the CAR2 locus were cultured in the modified MinAB medium (MinABs), which had glucose and ammonium sulfate supplemented to the basal medium MinAB when necessary.
Here, substrate selectivity of the 2.2 kb DAO1 promoter (PDAO1in) reporter strains was investigated on their inducibility by different D-amino acids.

DAO1 mRNA = test: qRT-PCR of DAO1 mRNA transcripts in R. toruloides cells; format: cell-based
Method: as §1
Total RNA was treated with DNase I (Roche Diagnostics) and recovered by ethanol precipitation to remove the trace DNA. cDNA was synthesized using the iScript™ Reverse Transcription Supermix for RT (Bio-Rad, USA) and real-time PCR was conducted in ABI PRISM 7900HT Sequence Detection System (Life Technologies, USA) using the ABI SYBR® Select Master Mix (Life Technologies, USA). PCR conditions were as followed: an initial 50° C. for 2 min and 95° C. denaturation step for 10 min followed by 40 cycles of denaturation at 95° C. for 15 s, annealing at 60° C. for 1 min. Triplicates were used for all qRT-PCR analyses. The data was acquired using the software SDS 2.4 (Applied Biosystems, Life Technologies, USA) and relative gene expression was calculated against the reference gene ACT1 (nucleotide sequence: SEQ ID NO:89; amino acid sequence: SEQ ID NO:90) with the 2-ΔΔCt method through the RQ Manager software v1.2.1 (Applied Biosystems, USA).
To investigate the regulation DAO1 gene expression, the mRNA level in cells cultured in YPD medium supplemented with D-alanine or L-alanine levels was quantitated by qRT-PCR using the Actin mRNA (ACT1) as the reference. As expected, DAO1 mRNA expression was negligible when cells were cultured in MinABs medium supplemented with L-alanine or ammonium sulfate as the sole nitrogen source (FIG. 4B).

[1] = system: DAO1 mRNA transcripts / Dao1 protein; details: induction with D-alanine; cited from earlier work

In the case of `CSCC[C@@H](N)C(=O)O` [D-methionine], the “induction of DAO1 promoter by D-amino acid” value (“induction of DAO1 promoter” below) (DAO1 promoter (PDAO1in)) was “significantly less effective”.

For `OCC(O)CO` [glycerol], the “DAO1 transcription compared to that of glucose” value (DAO1 mRNA; substance as the sole carbon source (YPG broth), 6 hour, 28° C., FIG. 4C) was “enhance DAO1 transcription”.

In the case of `CC(C)[C@@H](N)C(=O)O` [D-valine], the “induction of DAO1 promoter” value (DAO1 promoter (PDAO1in)) was “similarly effective”.

For `N[C@H](Cc1c[nH]c2ccccc12)C(=O)O` [D-tryptophan], the “induction of DAO1 promoter” value (DAO1 promoter (PDAO1in)) was “significantly less effective”.

For `O=C(O)[C@H]1CCCN1` [D-proline], the “induction of DAO1 promoter” value (DAO1 promoter (PDAO1in)) was “similarly effective”.

With `C[C@H](O)[C@@H](N)C(=O)O` [D-threonine] the “induction of DAO1 promoter” value (DAO1 promoter (PDAO1in)) was “similarly effective”.

With `CC(C)C[C@@H](N)C(=O)O` [D-leucine] the “induction of DAO1 promoter” value (DAO1 promoter (PDAO1in)) was “significantly less effective”.

With `N[C@H](Cc1ccccc1)C(=O)O` [D-phenylalanine] the “induction of DAO1 promoter” value (DAO1 promoter (PDAO1in)) was “significantly less effective”.

With `N.N.O=S(=O)(O)O` [ammonium sulfate] the “effect on D-alanine-induced DAO1in promoter activity” value (DAO1 promoter (PDAO1in); added to MinABs with 70 mM D-alanine, glucose 10 g/L, ammonium sulfate 70 mM, FIG. 7A) was “little effect” and the “effect of concentration on DAO1 promoter activity” value (DAO1 promoter (PDAO1in); glucose 10-100 g/L, ammonium sulfate 5-50 mM, with 70 mM D-alanine, FIGS. 7C and 7D) was “only marginal effects”.

In the case of `C[C@H](N)C(=O)O` [L-alanine], the “DAO1 mRNA expression” value (DAO1 mRNA; MinABs medium, substance as the sole nitrogen source, FIG. 4B) was “negligible” and the “reduction of luciferase expression” value (DAO1 promoter (PDAO1in); equal level (70 mM) added as the competitor to 70 mM D-alanine, after 21 hr culture, FIG. 7A) was “about 5 fold”.

In the case of `C[C@@H](N)C(=O)O` [D-alanine], the “DAO1 mRNA level relative to control medium” value (DAO1 mRNA; 6-hr after D-alanine supplementation, both glucose and ammonium sulfate omitted, FIG. 4B) was ~100 fold, the “DAO1 mRNA level increase” value (DAO1 mRNA; cultured in the presence of 70 mM D-alanine, ACT1 reference, FIG. 4B) was 12-18 folds and the “induction of DAO1 promoter” value (DAO1 promoter (PDAO1in)) was “most preferably induced”. For the same compound, the “luciferase expression among media” value (DAO1 promoter (PDAO1in); MinABs supplemented with 70 mM D-alanine only, FIG. 7A) was “Best luciferase expression”, the “concentration effective in driving expression of the reporter gene (as low as)” value (DAO1 promoter (PDAO1in); MinABs with 10 g/L glucose, FIG. 7B) was 20 mM and the “Dao1 protein share of the soluble intracellular proteins” value [1] was 1.0%. The “time of peak of DAO1 mRNA transcripts after induction” value [1] was ≤ 12 h.

For `N[C@H](CO)C(=O)O` [D-serine], the “induction of DAO1 promoter” value (DAO1 promoter (PDAO1in)) was “similarly effective”.
